Tests used:
Assay in all cases: relative viability (nuclei count vs DMSO), 5 days (fraction); higher = more cells survive
[1] = compound: CO[C@H]1C[C@@H]2CC[C@@H](C)[C@@](O)(O2)C(=O)C(=O)N2CCCC[C@H]2C(=O)O[C@H]([C@H](C)C[C@@H]2CC[C@@H](OCCO)[C@H](OC)C2)CC(=O)[C@H](C)/C=C(\C)[C@@H](O)[C@@H](OC)C(=O)[C@H](C)C[C@H](C)/C=C/C=C/C=C/1C [Everolimus] + CS(=O)(=O)CCNCc1ccc(-c2ccc3ncnc(Nc4ccc(OCc5cccc(F)c5)c(Cl)c4)c3c2)o1 [Lapatinib] (partner 2 µM)
In short: (§1)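 A single step with final 0.05% Triton X-100, 1% formaldehyde and 1 ug/ml Hoechst fixed the cells and stained nuclei 5 days after treatment. Lung cancer cell lines in 1536-well plates had been treated by pin tool the day after seeding with one drug alone or a fixed anchor-drug dose plus five library-drug doses (not always all listed) in √10 steps, and nuclei were counted on 4× images. Relative viability is the ratio of nuclei in treated wells to nuclei in vehicle wells, taken as the median of duplicate plates.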

[2] = compound: CO[C@H]1C[C@@H]2CC[C@@H](C)[C@@](O)(O2)C(=O)C(=O)N2CCCC[C@H]2C(=O)O[C@H]([C@H](C)C[C@@H]2CC[C@@H](OCCO)[C@H](OC)C2)CC(=O)[C@H](C)/C=C(\C)[C@@H](O)[C@@H](OC)C(=O)[C@H](C)C[C@H](C)/C=C/C=C/C=C/1C [Everolimus] + O=C(c1cc(Cc2n[nH]c(=O)c3ccccc23)ccc1F)N1CCN(C(=O)C2CC2)CC1 [Olaparib] (partner 8 µM)
In short: as §1

[3] = compound: CO[C@H]1C[C@@H]2CC[C@@H](C)[C@@](O)(O2)C(=O)C(=O)N2CCCC[C@H]2C(=O)O[C@H]([C@H](C)C[C@@H]2CC[C@@H](OCCO)[C@H](OC)C2)CC(=O)[C@H](C)/C=C(\C)[C@@H](O)[C@@H](OC)C(=O)[C@H](C)C[C@H](C)/C=C/C=C/C=C/1C [Everolimus] + NC(=O)Nc1cc(-c2cccc(F)c2)sc1C(=O)N[C@H]1CCCNC1 [AZD7762] (partner 0.2 µM)
In short: as §1

[4] = compound: CO[C@H]1C[C@@H]2CC[C@@H](C)[C@@](O)(O2)C(=O)C(=O)N2CCCC[C@H]2C(=O)O[C@H]([C@H](C)C[C@@H]2CC[C@@H](OCCO)[C@H](OC)C2)CC(=O)[C@H](C)/C=C(\C)[C@@H](O)[C@@H](OC)C(=O)[C@H](C)C[C@H](C)/C=C/C=C/C=C/1C [Everolimus] + Nc1ncn([C@H]2C[C@H](O)[C@@H](CO)O2)c(=O)n1 [Decitabine] (partner 2 µM)
In short: as §1

| Cell Line | relative viability ([1]; first compound 0.01 µM) | relative viability ([1]; first compound 0.03162 µM) | relative viability ([1]; first compound 0.1 µM) | relative viability ([1]; first compound 0.3162 µM) | relative viability ([1]; first compound 1 µM) | relative viability ([2]; first compound 0.01 µM) | relative viability ([2]; first compound 0.03162 µM) | relative viability ([2]; first compound 0.1 µM) | relative viability ([2]; first compound 0.3162 µM) | relative viability ([2]; first compound 1 µM) | relative viability ([3]; first compound 0.3162 µM) | relative viability ([3]; first compound 1 µM) | relative viability ([4]; first compound 0.01 µM) | relative viability ([4]; first compound 0.03162 µM) | relative viability ([4]; first compound 0.1 µM) | relative viability ([4]; first compound 0.3162 µM) | relative viability ([4]; first compound 1 µM) | relative viability ([3]; first compound 0.01 µM) | relative viability ([3]; first compound 0.03162 µM) | relative viability ([3]; first compound 0.1 µM) |
| --- | --- | --- | --- | --- | --- | --- | --- | --- | --- | --- | --- | --- | --- | --- | --- | --- | --- | --- | --- | --- |
| NCI-H1703 | 0.569 | 0.481 | 0.548 | 0.489 | 0.847 | 0.36 | 0.218 | 0.333 | 0.233 | 0.337 | 0.132 | 0.121 | – | – | – | – | – | – | – | – |
| NCI-H2009 | 0.853 | 0.782 | 0.441 | 0.878 | 0.877 | 0.601 | 0.456 | 0.364 | 0.492 | 0.446 | – | – | 0.295 | 0.313 | 0.382 | 0.288 | 0.377 | – | – | – |
| NCI-H2023 | 0.604 | 0.456 | 0.378 | 0.616 | 0.314 | 0.276 | 0.294 | 0.253 | 0.256 | 0.296 | – | – | 0.204 | 0.21 | 0.198 | 0.199 | 0.168 | – | – | – |
| NCI-H2228 | 0.89 | 0.7 | 0.705 | 0.582 | 0.793 | 0.658 | 0.289 | 0.336 | 0.266 | 0.311 | – | – | – | – | – | – | – | – | – | – |
| NCI-H2342 | – | – | – | – | – | 0.385 | 0.363 | 0.304 | 0.333 | 0.36 | 0.376 | 0.461 | 0.652 | 0.534 | 0.474 | 0.512 | 0.537 | 0.394 | 0.331 | 0.382 |
| SK-LU-1 | 0.638 | 0.624 | 0.576 | 0.49 | 0.61 | 0.423 | 0.378 | 0.301 | 0.389 | 0.362 | – | – | 0.411 | 0.474 | 0.474 | 0.516 | 0.524 | – | – | – |
| SK-MES-1 | 0.358 | 0.384 | 0.326 | 0.384 | 0.325 | 0.539 | 0.468 | 0.512 | 0.537 | 0.421 | – | – | 0.346 | 0.362 | 0.335 | 0.345 | 0.501 | – | – | – |
| SW 900 | – | – | – | – | – | 0.801 | 0.744 | 0.814 | 0.656 | 0.649 | 0.36 | 0.427 | 0.434 | 0.404 | 0.4 | 0.406 | 0.439 | 0.362 | 0.33 | 0.285 |
| SW 1573 | 0.649 | 0.705 | 0.627 | 0.686 | 0.572 | 0.264 | 0.384 | 0.314 | 0.268 | 0.3 | – | – | 0.268 | 0.331 | 0.298 | 0.306 | 0.338 | – | – | – |
| UMC-11 | 0.373 | 0.326 | 0.306 | 0.433 | 0.438 | 0.362 | 0.273 | 0.223 | 0.239 | 0.29 | – | – | 0.329 | 0.359 | 0.352 | 0.367 | 0.392 | – | – | – |

From the supplement of paper PMC10307832
